The results in this text go back to US10774084B2, “Adenine derivatives and their use as UV-photoprotective agents” (UNIVERZITA PALACKEHO V OLOMOUCI, priority 2015, dated 2020).

The subject of data set [1] is HaCaT. The experiment in a line: In vitro UVA/UVB photoprotection test on HaCaT. In kind it is cell-based, human. As for the experimental part:
Spontaneously Immortalized Aneuploid Human Keratinocyte Cell Line (HaCaT) was bought from CLS (Eppeheim, Germany) and used as an in vitro model. For all experiments the keratinocytes were seeded onto 96-well plates at a density of 1.6×10^5 cells/ml (0.2 ml per well) of growth medium (DMEM supplemented with fetal bovine serum (10%), penicillin ([…]) and streptomycin (100 U/ml)).
Test substances included compounds number 3, 9, 15 and 20. Compounds were dissolved in DMSO and then diluted in serum free medium (DMEM supplemented penicillin ([…]) and streptomycin (100 U/ml)). After 24 h incubation was growth medium changed to serum free medium containing test compounds. The final applied concentration range was 3.9-31.25 μmol/l. As a control, serum free medium supplemented with appropriate concentration of DMSO (0.5%, v/v) was used. Rosmarinic acid was used as positive control. After 60 minutes incubation with test compounds medium was discarded, cells were washed two-times with PBS and PBS supplemented with glucose (1 mg/ml) was applied. To study UVA photoprotection, a plate was exposed to a cytotoxic dose of UVA radiation (10 J/cm2) using a solar simulator SOL 500 (Dr. Hoenle Technology, Germany) equipped with a H1 filter transmitting wavelengths of 320-400 nm. To study UVB photoprotection, a plate was exposed to a cytotoxic dose of UVB radiation (150 mJ/cm2) using the solar simulator equipped with a H2 filter transmitting wavelengths of 295-320 nm. Intensity of UVA or UVB radiation was evaluated before each irradiation by UVA- or UVB-meter. Control (non-irradiated) plates were for the period of irradiation incubated in dark. After UVA or UVB exposure PBS with glucose was discarded and serum free medium was applied. After 24 hours (37° C., 5% CO2) cell damage was evaluated by neutral red (NR) incorporation into viable cells. Medium was discarded and NR solution (0.03% w/v, PBS) was applied. After 60 minutes NR solution was discarded, cells were fixed with a mixture of formaldehyde (0.5%, v/v) and CaCl2 (1%, m/v) in ratio 1:1 and then NR was dissolved in methanol (50%, v/v) with acetic acid (1%, v/v).
After 5 minutes of intensive shaking absorbance was measured at 540 nm. Experiments were performed in four independent repetitions with use of […] to minimize individual sensitivity of donor cells. Photoprotective effect was evaluated by comparison of experimental data (absorbance) of test compounds with a positive control and a negative control (according to the following equation: […]
As . . . absorbance of sample (cells pre-incubated with test compounds in serum free medium and irradiated)
Anc . . . absorbance of negative control (cells pre-incubated with s DMSO in serum free medium and non-irradiated=incubated in dark)
Apc . . . absorbance of positive control (cells pre-incubated with s DMSO in serum free medium and irradiated)

In data set [2] the test system is Normal Human Epidermal Keratinocytes (NHEK). In words: In vitro phototoxicity test (neutral red) on NHEK. It counts as cell-based. An excerpt: Normal Human Epidermal Keratinocytes (NHEK) were used as an in vitro model. Cells were isolated from tissue specimens obtained from healthy patients undergoing plastic surgery at the Department of Plastic and Aesthetic Surgery (University Hospital Olomouc). The use of skin tissue was in accordance with the Ethics Committee of the University Hospital and Faculty of Medicine and Dentistry, Palacky University, Olomouc and all patients signed written informed consent. NHEK were used between the 3rd and 4th passage. […] Intensity of UVA radiation was evaluated before each irradiation by UVA-meter. […]
After UVA exposure PBS with glucose was discarded and serum free medium was applied. After 24 hours (37° C., 5% CO2) cell damage was evaluated by neutral red (NR) incorporation into viable cells. […] After 5 minutes of intensive shaking absorbance was measured at 540 nm. […] Phototoxic effect was evaluated as % of viability of control cells that was calculated from experimental data (absorbance) according to the following equation: […]
AS . . . absorbance of sample (cells pre-incubated with test compound in serum free medium and irradiated)
AC . . . absorbance of control (cells pre-incubated with DMSO in serum free medium and irradiated)
AB . . . absorbance of background (extraction solution)

[3] abbreviates: Table 17: UVA-induced damage (10 J/cm2), 3.9 μmol/l.
Where [4] appears, read: Table 17: UVA-induced damage (10 J/cm2), 7.8 μmol/l.
Setting [5] is: Table 17: UVA-induced damage (10 J/cm2), 15.6 μmol/l.
[6] abbreviates: Table 17: UVA-induced damage (10 J/cm2), 31.3 μmol/l.
Setting [7] is: Table 18: titled UVA-induced damage, 3.9 μmol/l.
Setting [8] is: Table 18: titled UVA-induced damage, 7.8 μmol/l.
The mark [9] stands for this setting: Table 18: titled UVA-induced damage, 15.6 μmol/l.
The mark [10] stands for this setting: Table 18: titled UVA-induced damage, 31.3 μmol/l.

On to `OCc1ccc(CNc2ncnc3c2ncn3C2CCCO2)o1` (stereo not shown) [Compound 3, 6-(5-hydroxymethylfuran-2-ylmethylamino)-9-(tetrahydrofuran-2-yl)purine], for which the “Protection (%)” value in data set [1] (setting [3]) worked out at 26.8%; in data set [1] (setting [4]), 34.3%; in data set [1] (setting [5]) it was 46.0%; in data set [1] (setting [6]), 50.7%; in data set [1] (setting [7]), 27.3%; in data set [1] (setting [8]), 46.5%. Also, the “Protection (%)” value in data set [1] (setting [9]) stood at 47.8%; in data set [1] (setting [10]), 53.8%.
Regarding `c1csc(CNc2ncnc3c2ncn3C2CCCO2)c1` (stereo not shown) [Compound 9, 6-(thiophen-2-ylmethylamino)-9-(tetrahydrofuran-2-yl)purine], the “Protection (%)” value was 72.1% in data set [1] (setting [3]); 70.3% in data set [1] (setting [4]); 66.8% in data set [1] (setting [5]); 61.4% in data set [1] (setting [6]); 48.8% in data set [1] (setting [7]); 56% in data set [1] (setting [8]). The “Protection (%)” value turned out to be 55.7% in data set [1] (setting [9]) and 56.5% in data set [1] (setting [10]).
For the compound `Clc1nc(NCc2ccco2)c2ncn(C3CCCO3)c2n1` (stereo not shown) [Compound 15, 2-chloro-6-furfurylamino-9-(tetrahydrofuran-2-yl)purine], the “Protection (%)” value was found to be 41.2% in data set [1] (setting [3]); 56.9% in data set [1] (setting [4]); 55.3% in data set [1] (setting [5]); 76.7% in data set [1] (setting [6]); 12.3% in data set [1] (setting [7]); 35.3% in data set [1] (setting [8]). Also, the entries for the “Protection (%)” value in data set [1] (setting [9]) and in data set [1] (setting [10]) were 37.8% and 51.3%, respectively.
With `Clc1nc(NCC2CCCO2)c2ncn(C3CCCO3)c2n1` (stereo not shown) [Compound 20, 2-chloro-6-(tetrahydrofuran-2-ylmethylamino)-9-(tetrahydrofuran-2-yl)purine], the “Protection (%)” value is recorded as 12.3% in data set [1] (setting [3]); 25.0% in data set [1] (setting [4]); 28.9% in data set [1] (setting [5]); 31.6% in data set [1] (setting [6]); 45.7% in data set [1] (setting [7]); 66.2% in data set [1] (setting [8]). The “Protection (%)” value in data set [1] (setting [9]) was 64%; in data set [1] (setting [10]), 75.2%.
For `CN(C)CCCN1c2ccccc2Sc2ccc(Cl)cc21` [chlorpromazine, reference compound], the “viability of NHEK cells” value is recorded as “below 80 % of control” in data set [2] (UVA+, 0.6 μmol/l) and “below 50%” in data set [2] (UVA−, 12.5 μmol/l).
